Experiments:
Format in all cases: cell-based
Chaetomium globosum = assay: Minimum inhibitory concentration (MIC) on malt extract agar; conditions: 2 weeks incubation at 28° C., 60 to 70% relative atmospheric humidity
Procedure: (§1) The MIC was determined after 2 weeks of incubation at 28° C. and 60 to 70% relative atmospheric humidity. The MIC is the lowest concentration of active compound at which there is no colonization by the microbial species used; it is indicated in Table 2.

Aspergillus niger = assay: as above; conditions: 2 weeks incubation at 28° C., 60 to 70% relative atmospheric humidity
Procedure: as §1

Penicillium brevicaule = assay: as above; conditions: 2 weeks incubation at 28° C., 60 to 70% relative atmospheric humidity
Procedure: as §1

[1] = system: mold fungi (Alternaria tenuis, Aspergillus flavus, Aspergillus niger, Aspergillus ustus, Cindosporum herbarum, Paecilomyces variotii, Penicillium citrium …); assay: Test of dispersion coatings for resistance to mold; conditions: coatings according to recipe A containing 1.5% (based on solids) of compound; even after rinsing out and wind tunnel exposure; 2-3 weeks storage, 29±1° C., 80-90% rel. humidity
Procedure: To test dispersion coatings for resistance to mold, the following procedure was adopted:
The paint to be tested was applied to both sides of a suitable base. To obtain results which are close to practice, some of the test specimens were rinsed out with running water (24 h, 20° C.) before the test for mold resistance; others were treated with a current of warm fresh air (7 days, 40° C.).
The samples prepared in this way were then placed on an agar nutrient medium, and both samples and nutrient medium were contaminated with fungal spores. After 2-3 weeks storage (29±1° C., 80-90% rel. atmospheric humidity), the samples were compared.
The coating is considered to be permanently mold-resistant if the sample remains free from fungus or at most a slight border infestation can be detected.
For the contamination, fungal spores of the following mold fungi were used, which are known as paint destroyers or are frequently encountered on coatings: • Alternaria tenuis • Aspergillus flavus • Aspergillus niger • Aspergillus ustus • Cindosporum herbarum • Paecilomyces variotii • Penicillium citrium • Aureobasidium pullulans • Stachybotrys chartarum
Recipe A: Exterior dispersion paint based on Acroal 290 D (styrene acrylate)

SMILES	Minimum inhibitory concentrations Chaetomium globosum (Chaetomium globosum)	Minimum inhibitory concentrations Aspergillus niger (Aspergillus niger)	Minimum inhibitory concentrations Penicillium brevicaule (Penicillium brevicaule)	Mold resistance of coating [1]
COc1ccc(SC2=NCC(C)CS2)cc1 (centres unmarked) [Example 1]	<100 ppm	<200 ppm	<100 ppm	
COc1ccc(SC2=NC3CCCCC3CS2)cc1 (centres unmarked) [Example 4]	100 ppm			
CC1CN=C(Sc2ccc(Cl)cc2)SC1 (centres unmarked) [Example 6]	20 ppm	50 ppm	20 ppm	
CC1CN=C(Sc2ccccc2)SC1 (centres unmarked) [Example 11]	<50 ppm	<50 ppm	<50 ppm	
CC1(C)CN=C(Sc2cccs2)SC1 [Example 45]	<50 ppm	<200 ppm	<50 ppm	
COc1ccc(SC2=NCC(C)(C)CS2)cc1 [Example 47]				mold resistant
CC1(C)CN=C(Sc2cccc(F)c2)SC1 [Example 51]	<200 ppm	200 ppm	<200 ppm	
CC1(C)CCSC(Sc2ccc(Cl)cc2)=N1 [Example 61]	200 ppm			
CC1CCN=C(Sc2ccccc2)S1 (centres unmarked) [Example 62]	<100 ppm	<100 ppm	<50 ppm	
COc1cccc(SC2=NCCC(C)S2)c1 (centres unmarked) [Example 67]	<100 ppm	<200 ppm	<100 ppm	
c1csc(SC2=NC3CCCC3CS2)c1 (centres unmarked) [Example 79]	<100 ppm		100 ppm	
c1ccc(SC2=NC3CCCC3CS2)cc1 (centres unmarked) [Example 81]	<100 ppm		200 ppm	
Cc1ccc(SC2=NC3CCCC3CS2)cc1 (centres unmarked) [Example 82]	100 ppm			

Reference: patent publication US20060089352A1, “Substituted thiazines as material protecting agents” (priority 2002, published 2006)
